The text below walks through data of the PolyMetriX glass transition set.

As for `*C(=O)Nc1ccc(Cc2ccc(NC(=O)c3ccc4c(c3)C(=O)N(c3ccc(/N=N/c5ccc(C)cc5)c(N5C(=O)c6ccc(*)cc6C5=O)c3)C4=O)cc2)cc1` (repeat unit), the glass transition temperature amounted to 268.00 °C.
The figure for `*C(=O)c1ccc(Oc2ccc(-c3ccc(Oc4ccc(C(=O)c5ccc6c(c5)C(=O)N(c5ccc(N7C(=O)c8ccc(*)cc8C7=O)cc5)C6=O)cc4)cc3)cc2)cc1` (repeat unit) is 229.00 °C; for `*C(=O)c1ccc2c(c1)C(=O)N(c1cc(OCCCCCCCC)cc(N3C(=O)c4ccc(*)cc4C3=O)c1)C2=O` (repeat unit) it is 195.00 °C; for `*C(=O)c1ccc2c(c1)C(=O)N(c1cc(OCCCCCCCCCCCC)cc(N3C(=O)c4ccc(*)cc4C3=O)c1)C2=O` (repeat unit) it is 182.00 °C.
The figure for `*C(=O)c1ccc2c(c1)C(=O)N(c1ccc(CP(=O)(OCC)OCC)c(N3C(=O)c4ccc(*)cc4C3=O)c1)C2=O` (repeat unit) is 218.00 °C.
The figure for `*C(=O)c1ccc2c(c1)C(=O)N(c1ccc(Cl)c(N3C(=O)c4ccc(*)cc4C3=O)c1)C2=O` (repeat unit) is 305.00 °C.
For `*C(=O)c1ccc2c(c1)C(=O)N(c1ccc(N3C(=O)c4ccc(*)cc4C3=O)c(S(=O)(=O)[O][Na])c1)C2=O` (repeat unit), the glass transition temperature was 214.00 °C.
To `*C(=O)c1ccc2c(c1)C(=O)N(c1ccc(OCCOCCOCCOc3ccc(N4C(=O)c5ccc(*)cc5C4=O)cc3)cc1)C2=O` (repeat unit) belongs 200.00 °C; to `*C(=O)c1ccc2c(c1)C(=O)N(c1ccc(OCCOCCOc3ccc(N4C(=O)c5ccc(*)cc5C4=O)cc3)cc1)C2=O` (repeat unit), 235.00 °C.
The figure for `*C(=O)c1ccc2c(c1)C(=O)N(c1ccc(Oc3cc4ccccc4cc3Oc3ccc(N4C(=O)c5ccc(*)cc5C4=O)cc3)cc1)C2=O` (repeat unit) is 246.00 °C; for `*C(=O)c1ccc2c(c1)C(=O)N(c1ccc(Oc3ccc(C(=O)c4cccc(C(=O)c5ccc(Oc6ccc(N7C(=O)c8ccc(*)cc8C7=O)cc6)cc5)n4)cc3)cc1)C2=O` (repeat unit) it is 314.50 °C; for `*Oc1ccc(Sc2ccc(Oc3ccc(-c4ccc(-c5ccc(-c6ccc(*)c(C(F)(F)F)c6)cc5)cc4)cc3C(F)(F)F)cc2)cc1` (repeat unit) it is 176.50 °C.
`*c1cc(*)cc(-c2nc3ccccc3o2)c1` (repeat unit) yielded a glass transition temperature of 250.00 °C.
The figure for `*c1cc(CC(=O)OCCCCCCOc2ccc(/N=N/c3ccc(C#N)cc3)cc2)c(*)s1` (repeat unit) is 64.00 °C; for `*c1cc(CCCCCCOC(=O)COC)c(*)s1` (repeat unit) it is 37.00 °C; for `*c1cc(CCCCCCOC(=O)Cc2ccccc2)c(*)s1` (repeat unit) it is 45.00 °C.
The compound `*c1cc(CCCCCCO[Si](C)(C)C)c(*)s1` (repeat unit) showed a glass transition temperature of 10.00 °C.
To `*c1cc(SCCCCCC)c(*)s1` (repeat unit) belongs 32.00 °C; to `*c1cc(SCCCCCCCCCCCC)c(*)s1` (repeat unit), 33.00 °C.
To `*c1ccc(-c2cc(-c3ccc(OCC(CC)CCCC)cc3)cc(-c3ccc(-c4ccc5c(c4)C(CCCCCC)(CCCCCC)c4cc(*)ccc4-5)cc3)c2-c2ccc(OCC(CC)CCCC)cc2)cc1` (repeat unit) belongs 110.00 °C.
Consider `*c1ccc(-c2cc(CCCCCCCC)c(-c3ccc(-c4ccc(-c5sc(-c6ccc([Si](CCCC)(CCCC)[Si](*)(CCCC)CCCC)s6)cc5CCCCCCCC)s4)s3)s2)s1` (repeat unit), for which the glass transition temperature is -10.00 °C.
The figure for `*c1ccc(-c2cc3c(ccc4ccccc43)cc2-c2ccc(N(*)c3ccc(C)cc3)cc2)cc1` (repeat unit) is 126.00 °C.
To `*c1ccc(-c2ccc(-c3c(-c4ccccc4)nc4ccc(Oc5ccc6nc(-c7ccccc7)c(*)c(-c7ccccc7)c6c5)cc4c3-c3ccccc3)cc2)cc1` (repeat unit) belongs 330.00 °C; to `*c1ccc(-c2ccc(-c3cc(-c4ccccc4)c4cc(C5(c6ccc7nc(*)cc(-c8ccccc8)c7c6)c6ccccc6-c6ccccc65)ccc4n3)cc2)cc1` (repeat unit), 380.00 °C; to `*c1ccc(-c2ccc(-c3cc(-c4ccccc4)c4cc5nc(*)cc(-c6ccccc6)c5cc4n3)cc2)cc1` (repeat unit), 383.00 °C.
To `*c1ccc(-c2ccc(-c3ccc(-c4cc(-c5ccccc5)c5cc(-c6ccc7nc(*)cc(-c8ccccc8)c7c6)ccc5n4)cc3)cc2)cc1` (repeat unit) belongs 360.00 °C; to `*c1ccc(-c2ccc(-c3ccc(-c4ccc(-c5cc(-c6ccccc6)c6cc(-c7ccc8nc(*)cc(-c9ccccc9)c8c7)ccc6n5)cc4)cc3)cc2)cc1` (repeat unit), 355.00 °C.
`*c1ccc(-c2ccc(-c3ccc(-c4ccc(-c5ccc6c(c5)C(=O)N(c5cccc(N7C(=O)c8ccc(*)cc8C7=O)c5)C6=O)cc4)cc3)cc2)cc1` (repeat unit) showed a glass transition temperature of 237.00 °C.
The figure for `*c1ccc(-c2ccc(-c3ccc([Si](*)(CCCC)CCCC)s3)s2)s1` (repeat unit) is 30.00 °C; for `*c1ccc(-c2ccc(-c3ccc([Si](C)(C)[Si](*)(C)C)s3)s2)s1` (repeat unit) it is 45.00 °C.
To `*c1ccc(-c2ccc(-c3cnc4cc(-c5ccc6nc(*)cnc6c5)ccc4n3)cc2)cc1` (repeat unit) belongs 345.50 °C; to `*c1ccc(-c2ccc(-n3c(=O)c4c(C(F)(F)F)c5c(=O)n(*)c(=O)c5c(C(F)(F)F)c4c3=O)cc2C)c(C)c1` (repeat unit), 385.00 °C; to `*c1ccc(-c2ccc(-n3c(=O)c4cc5c(=O)n(*)c(=O)c5c(C(F)(F)F)c4c3=O)cc2C(F)(F)F)c(C(F)(F)F)c1` (repeat unit), 373.00 °C.
`*c1ccc(C(c2ccc(-c3cc(-c4ccccc4)c4cc(Oc5ccc6nc(*)cc(-c7ccccc7)c6c5)ccc4n3)cc2)(C(F)(F)F)C(F)(F)F)cc1` (repeat unit) displayed a glass transition temperature of 260.00 °C.
To `*c1ccc(C(c2ccc(N3C(=O)c4cc(-c5ccc(C(C)(C)C)cc5)c(-c5cc6c(cc5-c5ccc(C(C)(C)C)cc5)C(=O)N(*)C6=O)cc4C3=O)cc2)(C(F)(F)F)C(F)(F)F)cc1` (repeat unit) belongs 381.00 °C; to `*c1ccc(C2(c3ccc(-c4cc(-c5ccccc5)c5cc(C6(c7ccc8nc(*)cc(-c9ccccc9)c8c7)c7ccccc7-c7ccccc76)ccc5n4)cc3)c3ccccc3C(=O)c3ccccc32)cc1` (repeat unit), 385.00 °C.
To `*c1ccc(C2(c3ccc(-c4cc(-c5ccccc5)c5cc(Oc6ccc7nc(*)cc(-c8ccccc8)c7c6)ccc5n4)cc3)c3ccccc3C(=O)c3ccccc32)cc1` (repeat unit) belongs 340.00 °C; to `*c1ccccc1CCc1ccc(N2C(=O)C(=O)N(c3ccc(C)c(N4C(=O)C(=O)N(*)C4=O)c3)C2=O)cc1` (repeat unit), 255.00 °C.
